Laboratory results as given in ChEMBL document CHEMBL3046943, “Synthesis, anti-inflammatory and antimicrobial evaluation of novel N1-(quinolin-4yl)ethane-1,2-diamine phenyl urea derivatives” (2013).
Values after ≈ are worked out from the molar mass of the structure shown. Active and inactive are the calls of the source. The rule behind the calls is not given here.

Legend:
Staphylococcus aureus [1] = test: Antibacterial activity against Staphylococcus aureus MTCC 96 after 24 hr by agar well diffusion method; assay type: functional; conditions: MTCC 96, 24 h
Bacillus subtilis [2] = test: Antibacterial activity against Bacillus subtilis MTCC 441 after 24 hr by agar well diffusion method; assay type: functional; conditions: MTCC 441, 24 h
Salmonella typhimurium [3] = test: Antibacterial activity against Salmonella enterica subsp. enterica serovar Typhimurium MTCC 98 after 24 hr by agar well diffusion method; assay type: functional; conditions: MTCC 98, 24 h
Escherichia coli [4] = test: Antibacterial activity against Escherichia coli MTCC 443 after 24 hr by agar well diffusion method; assay type: functional; conditions: MTCC 443, 24 h
Staphylococcus aureus [5] = test: Antibacterial activity against Staphylococcus aureus MTCC 96 up to 200 ug/ml after 24 hr by agar well diffusion method; assay type: functional, organism-based
Bacillus subtilis [6] = test: Antibacterial activity against Bacillus subtilis MTCC 441 up to 200 ug/ml after 24 hr by agar well diffusion method; assay type: functional, organism-based
Escherichia coli [7] = test: Antibacterial activity against Escherichia coli MTCC 443 up to 200 ug/ml after 24 hr by agar well diffusion method; assay type: functional, organism-based
Fusarium solani [8] = test: Antifungal activity against Fusarium solani MTCC 350 up to 200 ug/ml after 2 to 3 days by agar well diffusion method; assay type: functional, organism-based
Salmonella typhimurium [9] = test: Antibacterial activity against Salmonella enterica subsp. enterica serovar Typhimurium MTCC 98 up to 200 ug/ml after 24 hr by agar well diffusion method; assay type: functional, organism-based
Aspergillus flavus [10] = test: Antifungal activity against Aspergillus flavus MTCC 277 after 2 to 3 days by agar well diffusion method; assay type: functional
Candida albicans [11] = test: Antifungal activity against Candida albicans MTCC 227 after 2 to 3 days by agar well diffusion method; assay type: functional
THP-1 [12] = test: Anti-inflammatory activity in Homo sapiens (human) THP1 cells assessed as inhibition of LPS-induced TNFalpha production at 10 uM incubated for 30 min prior to LPS-challenge measured after 24 hr by ELISA relative to control; assay type: functional
Aspergillus niger [13] = test: Antifungal activity against Aspergillus niger MTCC 281 after 2 to 3 days by agar well diffusion method; assay type: functional
THP-1 [14] = test: Anti-inflammatory activity in Homo sapiens (human) THP1 cells assessed as inhibition of LPS-induced IL6 production at 10 uM incubated for 30 min prior to LPS-challenge measured after 24 hr by ELISA relative to control; assay type: functional
Fusarium solani [15] = test: Antifungal activity against Fusarium solani MTCC 350 after 2 to 3 days by agar well diffusion method; assay type: functional
Aspergillus flavus [16] = test: Ratio of miconazole MIC to compound MIC for Aspergillus flavus MTCC 277; assay type: functional
Candida albicans [17] = test: Ratio of miconazole MIC to compound MIC for Candida albicans MTCC 227; assay type: functional
Candida albicans [18] = test: Antifungal activity against Candida albicans MTCC 227 up to 200 ug/ml after 2 to 3 days by agar well diffusion method; assay type: functional, organism-based
Aspergillus flavus [19] = test: Antifungal activity against Aspergillus flavus MTCC 277 up to 200 ug/ml after 2 to 3 days by agar well diffusion method; assay type: functional, organism-based
Aspergillus niger [20] = test: Antifungal activity against Aspergillus niger MTCC 281 up to 200 ug/ml after 2 to 3 days by agar well diffusion method; assay type: functional, organism-based
THP-1 [21] = test: Anti-inflammatory activity in Homo sapiens (human) THP1 cells assessed as inhibition of LPS-induced IL6 production at 1 uM incubated for 30 min prior to LPS-challenge measured after 24 hr by ELISA relative to control; assay type: functional
THP-1 [22] = test: Anti-inflammatory activity in Homo sapiens (human) THP1 cells assessed as inhibition of LPS-induced TNFalpha production at 1 uM incubated for 30 min prior to LPS-challenge measured after 24 hr by ELISA relative to control; assay type: functional

MIC (Staphylococcus aureus [1]) [µg/mL] | MIC (Bacillus subtilis [2]) [µg/mL] | MIC (Salmonella typhimurium [3]) [µg/mL] | MIC (Escherichia coli [4]) [µg/mL] | MIC (Aspergillus flavus [10]) [µg/mL] | MIC (Candida albicans [11]) [µg/mL] | MIC (Aspergillus niger [13]) [µg/mL] | MIC (Fusarium solani [15]) [µg/mL] | Structure (SMILES) | Activity (Bacillus subtilis [6]) | Activity (Escherichia coli [7]) | Activity (Salmonella typhimurium [9]) | inhibition at 10 µM (THP-1 [12]) [%] | inhibition at 10 µM (THP-1 [14]) [%] | further results
– | – | – | – | 90 (≈ 451 µM) | 90 (≈ 451 µM) | 90 (≈ 451 µM) | – | Fc1cc(F)c2nccc(Cl)c2c1 [4-CHLORO-6,8-DIFLUOROQUINOLINE] | inactive | inactive | inactive | 0 | 0 | Activity (Staphylococcus aureus [5]): inactive; Activity (Fusarium solani [8]): inactive
25 (≈ 66.8 µM) | 20 (≈ 53.4 µM) | 30 (≈ 80.1 µM) | 25 (≈ 66.8 µM) | 20 (≈ 53.4 µM) | 25 (≈ 66.8 µM) | 30 (≈ 80.1 µM) | 20 (≈ 53.4 µM) | Cc1ccc(F)cc1NC(=O)NCCNc1ccnc2c(F)cc(F)cc12 | – | – | – | 28 | 40 | –
40 (≈ 108 µM) | 30 (≈ 81 µM) | 35 (≈ 94.5 µM) | 40 (≈ 108 µM) | 30 (≈ 81 µM) | 25 (≈ 67.5 µM) | 35 (≈ 94.5 µM) | 20 (≈ 54 µM) | Cc1ccc(NC(=O)NCCNc2ccnc3c(F)cc(F)cc23)cc1C | – | – | – | 11 | 16 | –
– | – | – | – | 20 (≈ 48.1 µM) | 20 (≈ 48.1 µM) | 15 (≈ 36 µM) | 15 (≈ 36 µM) | Clc1ccc(COC(Cn2ccnc2)c2ccc(Cl)cc2Cl)c(Cl)c1 (stereo unspecified) [MICONAZOLE] | – | – | – | – | – | –
20 (≈ 55.5 µM) | 20 (≈ 55.5 µM) | 20 (≈ 55.5 µM) | 15 (≈ 41.6 µM) | 15 (≈ 41.6 µM) | 15 (≈ 41.6 µM) | 20 (≈ 55.5 µM) | 20 (≈ 55.5 µM) | O=C(NCCNc1ccnc2c(F)cc(F)cc12)Nc1ccccc1F | – | – | – | 11 | 18 | Ratio (Aspergillus flavus [16]): 1.3; Ratio (Candida albicans [17]): 1.3
25 (≈ 56.2 µM) | 25 (≈ 56.2 µM) | 15 (≈ 33.7 µM) | 20 (≈ 45 µM) | 20 (≈ 45 µM) | 20 (≈ 45 µM) | 15 (≈ 33.7 µM) | 20 (≈ 45 µM) | O=C(NCCNc1ccnc2c(F)cc(F)cc12)Nc1cc(C(F)(F)F)ccc1Cl | – | – | – | 61 | 80 | –
– | – | – | – | 80 (≈ 188 µM) | 80 (≈ 188 µM) | 80 (≈ 188 µM) | 90 (≈ 211 µM) | O=C(NCCNc1ccnc2c(F)cc(F)cc12)Nc1ccccc1OC(F)(F)F | inactive | inactive | inactive | 78 | 96 | Activity (Staphylococcus aureus [5]): inactive
– | – | – | – | – | – | – | – | NCCNc1ccnc2c(F)cc(F)cc12 | inactive | inactive | inactive | 0 | 0 | Activity (Staphylococcus aureus [5]): inactive; Activity (Candida albicans [18]): inactive; Activity (Fusarium solani [8]): inactive; Activity (Aspergillus flavus [19]): inactive; Activity (Aspergillus niger [20]): inactive
90 (≈ 211 µM) | – | – | – | – | 90 (≈ 211 µM) | – | – | O=C(NCCNc1ccnc2c(F)cc(F)cc12)Nc1ccc(OC(F)(F)F)cc1 | inactive | inactive | inactive | 16 | 28 | Activity (Fusarium solani [8]): inactive; Activity (Aspergillus flavus [19]): inactive; Activity (Aspergillus niger [20]): inactive
40 (≈ 104 µM) | 35 (≈ 91 µM) | 30 (≈ 78 µM) | 40 (≈ 104 µM) | 40 (≈ 104 µM) | 45 (≈ 117 µM) | 35 (≈ 91 µM) | 50 (≈ 130 µM) | CC(C)c1ccc(NC(=O)NCCNc2ccnc3c(F)cc(F)cc23)cc1 | – | – | – | 68 | 82 | –
– | – | – | – | – | 90 (≈ 497 µM) | – | – | O=c1cc[nH]c2c(F)cc(F)cc12 [6,8-DIFLUOROQUINOLIN-4(1H)-ONE] | inactive | inactive | inactive | 0 | 0 | Activity (Staphylococcus aureus [5]): inactive; Activity (Fusarium solani [8]): inactive; Activity (Aspergillus flavus [19]): inactive; Activity (Aspergillus niger [20]): inactive
15 (≈ 36.6 µM) | 10 (≈ 24.4 µM) | 15 (≈ 36.6 µM) | 10 (≈ 24.4 µM) | 25 (≈ 60.9 µM) | 15 (≈ 36.6 µM) | 10 (≈ 24.4 µM) | 20 (≈ 48.7 µM) | O=C(NCCNc1ccnc2c(F)cc(F)cc12)Nc1ccccc1C(F)(F)F | – | – | – | 71 | 90 | –
75 (≈ 183 µM) | 90 (≈ 219 µM) | 90 (≈ 219 µM) | 90 (≈ 219 µM) | 90 (≈ 219 µM) | 90 (≈ 219 µM) | – | 90 (≈ 219 µM) | O=C(NCCNc1ccnc2c(F)cc(F)cc12)Nc1ccc(C(F)(F)F)cc1 | – | – | – | 23 | 35 | Activity (Aspergillus niger [20]): inactive
90 (≈ 228 µM) | 90 (≈ 228 µM) | – | – | 30 (≈ 76 µM) | 40 (≈ 101 µM) | 75 (≈ 190 µM) | 60 (≈ 152 µM) | O=C(NCCNc1ccnc2c(F)cc(F)cc12)Nc1cccc(Cl)c1F | – | – | inactive | 16 | 27 | –
– | – | – | – | – | – | – | – | C[C@@H]1C[C@H]2[C@@H]3CCC4=CC(=O)C=C[C@]4(C)[C@@]3(F)[C@@H](O)C[C@]2(C)[C@@]1(O)C(=O)CO [DEXAMETHASONE] | – | – | – | – | – | inhibition at 1 µM (THP-1 [21]): 86%; inhibition at 1 µM (THP-1 [22]): 72%

Structure (SMILES) | MIC (Staphylococcus aureus [1]) [µg/mL] | MIC (Bacillus subtilis [2]) [µg/mL] | MIC (Salmonella typhimurium [3]) [µg/mL] | MIC (Escherichia coli [4]) [µg/mL] | MIC (Aspergillus flavus [10]) [µg/mL] | MIC (Candida albicans [11]) [µg/mL] | MIC (Aspergillus niger [13]) [µg/mL] | MIC (Fusarium solani [15]) [µg/mL] | Activity (Bacillus subtilis [6]) | Activity (Escherichia coli [7]) | Activity (Salmonella typhimurium [9]) | inhibition at 10 µM (THP-1 [12]) [%] | inhibition at 10 µM (THP-1 [14]) [%] | further results
O=C(O)c1cn(C2CC2)c2cc(N3CCNCC3)c(F)cc2c1=O [CIPROFLOXACIN] | 20 (≈ 60.4 µM) | 15 (≈ 45.3 µM) | 20 (≈ 60.4 µM) | 15 (≈ 45.3 µM) | – | – | – | – | – | – | – | – | – | –
